SMILES strings stand for the structures. Entries after “also recorded” stand apart in the source; their conditions may differ.

The text below walks through data of patent publication US20050049299A1, “Selective inhibitors of stat-3 activation and uses thereof” (priority 2003, published 2005).

Common to all, as to assay type: cell-based, human
One assay concerns STAT3 phosphorylation. Kind of assay: Constitutive STAT3 phosphorylation in MDA 1986LN cells (Western blot). Here is the method: TU167, MDA 1986LN, TU 686, MDA 686LN and JMAR cells (2×10^6 cells) were lysed and whole cell extracts (30 μg) were resolved on 7.5% SDS-PAGE, electrotransferred to a nitrocellulose membrane and probed for phosphorylated-STAT3 (p-STAT3) and total STAT3 proteins. […] MDA 1986LN cells (2×10^6 cells) were treated with curcumin (50 μM) for indicated durations or with indicated concentrations of curcumin for 1 h and levels of p-STAT3 (upper panels) and STAT3 (lower panels) were examined in whole cell extracts by Western blotting.
MDA 1986LN cells (2×10^6 cells) were treated with curcumin (50 μM) for the indicated durations (upper panels) or treated for 1 h and washed twice with PBS to remove curcumin before re-suspending in fresh medium. Cells were removed at indicated times and lysed to prepare the whole cell extract (lower panels). The whole cell extracts (30 μg) were resolved on 7.5% SDS-PAGE, electrotransferred to a nitrocellulose membrane, probed for the p-STAT3 (upper panels) and striped and reprobed for STAT3 (lower panels).
MDA 1986LN cells (2×10^6 cells) were treated with indicated concentrations of AG490 for 8 h and whole extracts prepared. These whole-cell extracts (30 μg) were resolved on 7.5% SDS-PAGE, electrotransferred to a nitrocellulose membrane, probed for p-STAT3 (upper panel), striped and reprobed for STAT3 (middle panel) and β-actin (lower panel). […] The cells were treated with AG490 (100 μM) for the indicated durations and whole cell extracts prepared and analyzed as mentioned earlier. FIG. 15C compares the effect of curcumin and AG490 on proliferation of MDA 1986LN cells by MTT assay.
Since STAT3 was constitutively phosphorylated in MDA 1986LN cells, the ability of curcumin to inhibit the constitutive STAT3 phosphorylation was examined. MDA 1986LN cells were treated either with curcumin (50 μM) for different durations or with different concentrations of curcumin for 1 h and the p-STAT3 levels and STAT3 levels were determined. Curcumin inhibited the constitutively active STAT3 in a time-(FIG. 11B) and a dose-(FIG. 11C) manner. This curcumin-induced inhibition could be observed as early as 30 min and with a concentration as low as 25 μM.
MDA 1986LN cells were treated with curcumin for indicated times or for 1 h and the cells were washed twice with PBS to remove curcumin. The cells were then cultured in media for various durations and the levels of phosphorylated STAT3 were determined. […] However, the STAT3 levels were unaffected by curcumin treatment.
The concentration and the exposure time for AG490 to inhibit STAT3 phosphorylation in MDA 1986LN cells were determined. These cells were incubated with either different concentrations of AG490 or with 100 μM of AG490 for different durations and the levels of p-STAT3 and STAT3 were assessed.

For assay [1], the system named is STAT3 nuclear translocation. Kind of assay: Immunocytochemistry for STAT3 localization in U266 cells. As to conditions: 50 μM, 60 minutes. Here is the method:
U266 cells were incubated alone or with curcumin (50 μM) for 60 minutes and then analyzed for the distribution of STAT3 by immunocytochemistry (originial magnification, 200X).
FIGS. 6A-C show& the effect of cell permeable STAT3 inhibitor peptide (STAT3iP) on STAT3 phosphorylation and cell viability in U266 cells. […] Results are shown as mean (±s.d. indicated by error bar) of absorbance (570 nm) of triplicate cultures compared to the untreated control.
Curcumin-treated multiple myeloma cells were plated on a glass slide by centrifugation using a Cytospin 4 (Thermoshendon, Pittsburg, Pa.), air-dried for 1 h at room temperature, and fixed with cold acetone. After a brief washing in PBS, slides were blocked with 5% normal goat serum for 1 h and then incubated with rabbit polyclonal anti-human STAT3 antibody (dilution, 1:100). After overnight incubation, the slides were washed and then incubated with goat anti-rabbit IgG-Alexa 594 (1:100) for 1 h and counter-stained for nuclei with Hoechst (50 ng/ml) for 5 min. Stained slides were mounted with mounting medium (Sigma Co.) and analyzed under an epifluorescence microscope (Labophot-2, Nikon, Tokyo, Japan). Pictures were captured using Photometrics Coolsnap CF color camera (Nikon, Lewisville, Tex.) and MetaMorph version 4.6.5 software (Universal Imaging Corp., Downingtown, Pa.). […]

The subject of another assay is U266 cells. Kind of assay: IL-6-induced proliferation of U266 cells (thymidine incorporation, MTT). Particulars: curcumin 10 μM, 48 h, serum-free; thymidine incorporation and MTT. On the procedure:
(§1) FIGS. 7A-B show& that IL-6 induces proliferation of human multiple myeloma cells and curcumin inhibits it. […] Cell proliferation assays were performed as described below. Results are shown as mean (±s.d.) of percent [^3H] thymidine incorporation or percent proliferation by MTT of triplicate cultures compared to the untreated control.
(§2) The antiproliferative effects of curcumin against different multiple myeloma cell lines were determined by the MTT dye uptake method as described earlier (28). Briefly, the cells (5000/well) were incubated in triplicate in a 96-well plate in the presence or absence of indicated test samples in a final volume of 0.1 ml for 24 h at 37° C. […] The OD at 570 nm was measured using a 96-well multiscanner autoreader (Dynatech MR 5000), with the extraction buffer serving as blank. Percent cell viability cell viability was calculated using the following formula: Percent cell viability=(OD of the experiment samples/OD of the control)×100.
(§3) The antiproliferative effects of curcumin were also monitored by the thymidine incorporation method. […] Six hours before the completion of experiment, cells were pulse treated with 0.5 μCi [^3H]thymidine, and the uptake of [^3H]thymidine was monitored using a Matrix-9600 β-counter (Packard Instruments, Downers Grove, Ill.). […]
(§4) Whether curcumin suppresses the proliferative effects of IL-6 was determined.

A further assay has as its system MM.1R cells. Kind of assay: IL-6-induced proliferation of MM.1R cells. Particulars: curcumin 10 μM, 48 h, serum-free. Here is the method:
as §1, §2, §3, §4

`COc1cc(/C=C/C(=O)CC(=O)/C=C/c2ccc(O)c(OC)c2)ccc1O` [curcumin, diferuloylmethane]: in the assay with STAT3 phosphorylation (50 μM 1 h then washed), the “reversibility of inhibition of STAT3 phosphorylation” value was “removal of curcumin resulted in gradual increase in phosphorylated STAT3”. In addition, the “earliest time at which inhibition of constitutive STAT3 phosphorylation could be observed” value with STAT3 phosphorylation (50 μM curcumin) was 30 min. Moreover, the “lowest concentration at which inhibition of constitutive STAT3 phosphorylation could be observed” value with STAT3 phosphorylation (1 h) was found to be 25 µM. Moreover, in the assay on STAT3 phosphorylation (curcumin 50 μM, 1 h), the “inhibition of constitutive STAT3 phosphorylation” value was “inhibited the STAT3 phosphorylation completely; also recorded: completely inhibit”. The “overall expression / levels of STAT3 protein” value in the assay with STAT3 phosphorylation (curcumin treatment) is “did not alter the overall expression of STAT3 protein; also recorded: unaffected”. Besides, in assay [1], the “translocation of STAT3 to the nucleus” value is “prevented the translocation of the STAT3 to the nucleus”. In addition, the “IL-6-induced proliferation of U266 cells” value in the assay on U266 cells is on record as “completely inhibited”. The “IL-6-induced cell proliferation in MM.1R cells” value in the assay on MM.1R cells is recorded as “inhibited IL-6-induced cell proliferation”.
